The values that follow come from patent US12171833B2, “Mucoadhesive polymeric drug delivery compositions and methods” (The University of British Columbia, priority 2020, dated 2024).

Data set [1] in a line: In vitro drug release from formulation A (dialysis mini chamber, PBS, 37° C.). Type of data set: physicochemical. As to conditions: 100 mg, PBS pH 7.4, 37° C., up to 30 hours. On the procedure:
Formulation A of PLGA 5%, HA 3%, PEG 92% was made up as described in TABLE 8. […] For the protein study the mini chamber was not closed but a small retaining sponge applied. The chamber was placed in 5 mL of PBS (pH 7.4 or PBS containing albumin to increase the solubility of docetaxel) and placed in an incubator at 37° C.

The conditions of data set [2]: 30 min IV infusion, cited from earlier work.

As for `Nc1ccn([C@@H]2O[C@H](CO)[C@@H](O)C2(F)F)c(=O)n1` [gemcitabine], the “drug release from paste” value in data set [1] is recorded as “faster than the other two agents”. In addition, in data set [2] (1250 mg/m^2 (32.1 mg/kg), literature), the AUC0-inf was 12500 ng·h/mL. Moreover, in data set [2] (1250 mg/m^2, literature), the kel was 3.18 h⁻¹ and the “t1/2 (terminal)” value is 13.8 min.
